From article PMC10150359 (Journal of Medicinal Chemistry, 2023)
Read-outs that look alike come from different tables or passages of the source.

Legend:
[1] = system: EBOV-GP-Pseudotype Virus (pEBOV); conditions: cited from earlier work
[2] = system: EBOV-GP-Pseudotype Virus (pEBOV)
[3] = system: wild-type Zaire EBOV Mayinga 1976 strain (EBOV May)
[4] = system: VSV-G-pseudotype virus (pVSV-G); assay: microbe, parasite or virus in culture; format: cell-based; conditions: Vesicular stomatitis virus, read-out: %inh@10 µM (pVSV-G)
[5] = system: EBOV-GP-Pseudotype Virus (pEBOV); assay: microbe, parasite or virus in culture; conditions: Zaire ebolavirus, HeLa, 48 h, read-out: EC50 (μM) (pEBOV)
[6] = system: wild-type Zaire EBOV Mayinga 1976 strain (EBOV May); assay: microbe, parasite or virus in culture; conditions: Zaire ebolavirus, Vero C1008, 72 h, read-out: EC50 (μM), replicative EBOV
in vitro [7] = conditions: human
in vitro [8] = conditions: chlorocebus sabaeus
[9] = male, BALB/c, mouse, in vivo
EBOV-GPcl/NPC1-domain C = EBOV-GPcl/NPC1-domain C (Zaire ebolavirus, UniProt Q05320); format: binding, Homo sapiens
EBOV-GPcl/NPC1-domain C, sequence (Q05320 33-190 limits assumed): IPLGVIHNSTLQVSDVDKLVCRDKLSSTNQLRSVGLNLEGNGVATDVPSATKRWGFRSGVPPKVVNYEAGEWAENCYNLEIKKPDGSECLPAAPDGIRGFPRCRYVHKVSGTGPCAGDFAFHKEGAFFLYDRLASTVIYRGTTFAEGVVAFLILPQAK
EBOV-GPcl/NPC1-domain C, sequence (Q05320 502-676 limits assumed): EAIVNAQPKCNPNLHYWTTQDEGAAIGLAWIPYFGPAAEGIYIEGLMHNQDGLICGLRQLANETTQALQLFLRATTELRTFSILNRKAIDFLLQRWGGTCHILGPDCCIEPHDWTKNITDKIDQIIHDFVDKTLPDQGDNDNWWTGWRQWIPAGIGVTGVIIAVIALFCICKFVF

[10] = pH 7.4
hERG potassium channel [11] = molecular target: T1, hERG potassium channel (Homo sapiens, UniProt Q12809); assay: in vitro; conditions: pH 7.2
T1 sequence (Q12809 whole entry): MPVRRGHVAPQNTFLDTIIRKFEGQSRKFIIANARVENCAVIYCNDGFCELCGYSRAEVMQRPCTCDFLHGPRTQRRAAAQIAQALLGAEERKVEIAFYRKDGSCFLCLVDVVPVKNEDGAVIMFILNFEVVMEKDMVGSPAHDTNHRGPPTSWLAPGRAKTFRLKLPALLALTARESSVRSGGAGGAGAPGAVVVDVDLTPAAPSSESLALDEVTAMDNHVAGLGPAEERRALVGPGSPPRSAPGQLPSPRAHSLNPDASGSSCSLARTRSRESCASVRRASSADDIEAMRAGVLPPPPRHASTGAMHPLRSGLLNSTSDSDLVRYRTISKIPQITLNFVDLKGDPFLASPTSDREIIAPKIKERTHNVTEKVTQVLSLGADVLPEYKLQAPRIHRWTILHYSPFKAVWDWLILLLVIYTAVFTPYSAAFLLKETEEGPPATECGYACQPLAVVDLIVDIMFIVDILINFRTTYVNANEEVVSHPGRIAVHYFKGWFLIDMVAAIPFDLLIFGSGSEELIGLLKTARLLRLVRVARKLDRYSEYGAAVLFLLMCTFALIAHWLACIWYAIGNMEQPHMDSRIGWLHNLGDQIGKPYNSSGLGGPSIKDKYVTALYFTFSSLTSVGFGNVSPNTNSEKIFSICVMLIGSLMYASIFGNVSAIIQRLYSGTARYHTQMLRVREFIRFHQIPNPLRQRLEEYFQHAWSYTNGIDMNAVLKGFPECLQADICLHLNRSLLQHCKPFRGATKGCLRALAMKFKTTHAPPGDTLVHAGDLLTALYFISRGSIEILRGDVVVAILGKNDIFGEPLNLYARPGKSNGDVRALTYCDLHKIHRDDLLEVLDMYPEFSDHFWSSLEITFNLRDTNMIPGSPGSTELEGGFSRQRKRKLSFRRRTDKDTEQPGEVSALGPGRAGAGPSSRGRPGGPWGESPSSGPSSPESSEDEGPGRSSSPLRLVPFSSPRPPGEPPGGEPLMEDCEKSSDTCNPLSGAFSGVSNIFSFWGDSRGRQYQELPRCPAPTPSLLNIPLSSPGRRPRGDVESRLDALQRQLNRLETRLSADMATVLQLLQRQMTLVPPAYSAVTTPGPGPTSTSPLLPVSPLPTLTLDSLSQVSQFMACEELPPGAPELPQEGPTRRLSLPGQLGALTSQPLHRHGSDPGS

[12] = CD-1, mouse, pH 7.4
in vitro [13] = conditions: human, microsomes, pH 7.4
hERG potassium channel [14] = molecular target: T1, hERG potassium channel
in vitro [15] = conditions: CD-1, mouse, microsomes, pH 7.4
in vivo = conditions: male, BALB/c, mouse; for Cmax at 24 h: Cmax (ng/mL)
[16] = ip, 10 mg/kg, Brain-Kp (AUClast)
[17] = po, 50 mg/kg, Brain-Kp (AUClast)

| Compound | SI (pEBOV) (CC50/EC50) [2] | SI (CC50/EC50), replicative EBOV [3] | inhibition at 10 µM [4] | EC50 [5] | EC50 [6] | CC50 at 24 h (in vitro [7]) | CC50 at 24 h (in vitro [8]) | loss of binding between EBOV-GPcl/NPC1-domain C (EBOV-GPcl/NPC1-domain C) | CLint (mL/min/mg protein), human liver microsomes [10] | IC50 (hERG potassium channel [11]) | CLint (mL/min/mg protein), mouse liver microsomes [12] | half-life at 1 h, 10 µM (in vitro [13]) | cardiotoxicity classification from hERG IC50 (hERG potassium channel [14]) | half-life at 1 h, 10 µM (in vitro [15]) | Kp at 24 h (in vivo; [16]) | Kp at 24 h (in vivo; ip, 10 mg/kg, Brain-Kp (Cmax)) | half-life at 24 h (in vivo; po, 50 mg/kg) | Kp at 24 h (in vivo; [17]) | Kp at 24 h (in vivo; po, 50 mg/kg, Brain-Kp (Cmax)) | further results |
| --- | --- | --- | --- | --- | --- | --- | --- | --- | --- | --- | --- | --- | --- | --- | --- | --- | --- | --- | --- | --- |
| O=C(CNCCC1CCN(Cc2ccccc2)CC1)Nn1c2ccccc2c2ccccc21 [Compound 1] | 19 | 11.0 | 25% | 0.37 µM | 1.5 µM |  |  |  |  |  |  |  |  |  |  |  |  |  |  | IC50 [1]: 370 nM |
| O=C(CNCCC1CCN(Cc2ccccc2)CC1)NN(c1ccccc1)c1ccccc1 [Compound 10, 2-((2-(1-Benzylpiperidin-4-yl)ethyl)amino)-N′,N′-diphenylacetohydrazide] | 15 | 16.9 | 2% | 3.13 µM | 1.9 µM | 48 µM | 32.2 µM |  |  |  |  |  |  |  |  |  |  |  |  |  |
| O=C(CCNCCC1CCN(Cc2ccccc2)CC1)NN(c1ccccc1)c1ccccc1 [Compound 11, 3-((2-(1-Benzylpiperidin-4-yl)ethyl)amino)-N′,N′-diphenylpropanehydrazide] |  |  | 50% | 0.05 µM | 0.3 µM | 6 µM | 9.47 µM | does it to a lesser extent | 13 ± 1 mL/min/mg protein | 16.4 µM | 96 ± 23 mL/min/mg protein | 45 ± 3 min | not cardiotoxic | 26 ± 6 min | 2.04 | 0.18 | 352 min | 1.66 | 0.72 | estimated concentration on plasma [9]: 0.62 µM; AUClast ([9]; po, 50 mg/kg, 24 h): 3354.96 ng·h/mL; Cmax ([9]; po, 50 mg/kg, 24 h): 201.45 ng/mL; AUC(0-t) at 24 h (in vivo; po, 50 mg/kg, AUClast (h × ng/mL)): 2020 ng·h/mL; Cmax at 24 h (in vivo; po, 50 mg/kg): 278 ng/mL |
| O=C(CNCCN1CCN(Cc2ccccc2)CC1)NN(c1ccccc1)c1ccccc1 [Compound 12, 2-((2-(4-Benzylpiperazin-1-yl)ethyl)amino)-N′,N′-diphenylacetohydrazide] | 63 | 12.9 | -29% | 2.17 µM | 7.8 µM | 108 µM | 101 µM |  |  |  |  |  |  |  |  |  |  |  |  |  |
| O=C(CCNCCN1CCN(Cc2ccccc2)CC1)NN(c1ccccc1)c1ccccc1 [Compound 13, 3-((2-(4-Benzylpiperazin-1-yl)ethyl)amino)-N′,N′-diphenylpropanehydrazide] |  |  | 42% | 0.58 µM | 2.7 µM | 159 µM | 35.5 µM | interferes with the NPC1/EBOV-GPcl interaction similarly than our hit 1 (SC816) | 10.8 ± 0.3 mL/min/mg protein | 14.9 µM | 170 ± 20 mL/min/mg protein | 53 ± 2 min | not cardiotoxic | 14 ± 2 min | 46.4 | 0.99 | 262 min | 46.5 | 3.65 | Cmax ([9]; ip, 10 mg/kg, 24 h): 170.55 ng/mL; half-life at 24 h (in vivo; ip, 10 mg/kg): 46.2 min; Cmax at 24 h (in vivo; ip, 10 mg/kg): 172 ng/mL |
